From PMC5472064 (Organic & biomolecular chemistry, 2017) come the findings set out here.

This assay deals with p97 ATPase WT (Homo sapiens, UniProt P55072). As to the kind of experiment: ADPGlo biochemical assay of p97 ATPase inhibition. Particulars: for effect of structural change on activity/potency (in words): p97 inhibition, versus indole NH / amide analogs. For orientation: ADP-Glo turns the ADP formed in a reaction into a luminescent signal.

Like-named read-outs stand apart in the source and are kept apart here.

Sequence of p97 ATPase WT (P55072 whole entry): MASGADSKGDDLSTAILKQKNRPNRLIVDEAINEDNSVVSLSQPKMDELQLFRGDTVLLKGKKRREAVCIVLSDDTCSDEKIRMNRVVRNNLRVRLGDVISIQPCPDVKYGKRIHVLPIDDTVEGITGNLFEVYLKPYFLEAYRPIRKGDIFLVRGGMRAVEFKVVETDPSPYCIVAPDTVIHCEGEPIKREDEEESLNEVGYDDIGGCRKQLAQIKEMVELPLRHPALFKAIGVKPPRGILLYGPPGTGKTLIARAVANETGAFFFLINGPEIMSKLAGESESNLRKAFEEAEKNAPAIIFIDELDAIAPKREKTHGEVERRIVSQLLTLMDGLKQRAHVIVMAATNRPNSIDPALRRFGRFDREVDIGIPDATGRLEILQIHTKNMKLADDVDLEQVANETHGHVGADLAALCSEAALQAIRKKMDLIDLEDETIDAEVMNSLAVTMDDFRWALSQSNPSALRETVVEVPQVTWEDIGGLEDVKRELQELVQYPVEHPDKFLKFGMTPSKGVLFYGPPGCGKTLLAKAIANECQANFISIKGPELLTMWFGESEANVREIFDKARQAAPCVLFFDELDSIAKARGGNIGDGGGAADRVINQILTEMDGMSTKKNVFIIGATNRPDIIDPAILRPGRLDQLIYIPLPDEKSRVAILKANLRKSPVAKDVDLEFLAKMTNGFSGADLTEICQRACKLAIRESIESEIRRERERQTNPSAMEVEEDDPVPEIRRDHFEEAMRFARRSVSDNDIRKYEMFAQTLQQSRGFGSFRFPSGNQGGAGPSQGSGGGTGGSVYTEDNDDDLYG

For orientation: IC50 means the point on the concentration scale where inhibition reaches its midpoint. `CC(C)N1CCN(CCNC2CCN(c3cccc(-c4cc5ccccc5n4C)c3)CC2)CC1` [UPCDC30201, N-(2-(4-Isopropylpiperazin-1-yl)ethyl)-1-(3-(1-methyl-1H-indol-2-yl)phenyl)piperidin-4-amine]: the 50% inhibitory concentration (IC50) was > 50000 nM and the “effect of structural change on activity/potency (in words)” value is reported as “ablates”.

In the case of `CC(C)N1CCN(CCNC2CCN(c3ccc4c(c3)-c3[nH]c5ccccc5c3CC4)CC2)CC1` [UPCDC30206, 1-(6,11-Dihydro-5H-benzo[a]carbazol-2-yl)-N-(2-(4-isopropylpiperazin-1-yl)ethyl)piperidin-4-amine], half-maximal inhibition (IC50) required 390 nM.

Take `CC(C)N1CCN(CCNC2CCN(c3cccc(-c4ccc5ccccc5c4)c3)CC2)CC1` [UPCDC30222, N-(2-(4-Isopropylpiperazin-1-yl)ethyl)-1-(3-(naphthalen-2-yl)phenyl)piperidin-4-amine]: the IC50 came out at 5200 nM and the “effect of structural change on activity/potency (in words)” value was “greatly diminishes”.

Regarding `CC(C)N1CCN(CCNC2CCN(c3cccc(-c4cc5cc(F)ccc5[nH]4)c3)CC2)CC1` [UPCDC30245], for the setting “read-out: ADPGlo IC50, 20 nM p97 ATPase WT, 100 μM ATP, repeated multiple times”, the IC50 came out at 55 nM.

For `CC(C)N1CCN(CCNC2CCN(c3cccc(-c4nc5ccccc5[nH]4)c3)CC2)CC1` [UPCDC30250, 1-(3-(1H-Benzo[d]imidazol-2-yl)phenyl)-N-(2-(4-isopropylpiperazin-1-yl)ethyl)piperidin-4-amine], the IC50 worked out at 38500 nM. Further, the “reduction of binding affinity” value (benzimidazole versus indole) is > 2 orders of magnitude.

Compound `CC(C)N1CCN(CCNC2CCN(c3cccc(-c4cc5cc(C(N)=O)ccc5[nH]4)c3)CC2)CC1` [UPCDC30310, 2-(3-(4-((2-(4-Isopropylpiperazin-1-yl)ethyl)amino)piperidin-1-yl)phenyl)-1H-indole-5-carboxamide] displayed an IC50 of 100 nM.

In the case of `CC(C)N1CCN(CCNC2CCN(c3cccc(-c4cc5cc(Cl)ccc5[nH]4)c3)CC2)CC1` [UPCDC30317, 1-(3-(5-Chloro-1H-indol-2-yl)phenyl)-N-(2-(4-isopropylpiperazin-1-yl)ethyl)piperidin-4-amine], the IC50 is 190 nM.

The compound `COC(=O)c1ccc2[nH]c(-c3cccc(N4CCC(NCCN5CCN(C(C)C)CC5)CC4)c3)cc2c1` [UPCDC30341, Methyl 2-(3-(4-((2-(4-isopropylpiperazin-1-yl)ethyl)amino)piperidin-1-yl)phenyl)-1H-indole-5-carboxylate] had an IC50 of 130 nM.

Take `CC(C)N1CCN(CCNC2CCN(c3cccc(-c4cc5cnccc5[nH]4)c3)CC2)CC1` [UPCDC30345, 1-(3-(1H-Pyrrolo[3,2-c]pyridin-2-yl)phenyl)-N-(2-(4-isopropylpiperazin-1-yl)ethyl)piperidin-4-amine]: the IC50 came out at 4000 nM.

For the compound `Cc1ccc(N2CCC(NCCN3CCN(C(C)C)CC3)CC2)cc1-c1cc2cc(F)ccc2[nH]1` [UPCDC30346, 1-(3-(5-Fluoro-1H-indol-2-yl)-4-methylphenyl)-N-(2-(4-isopropylpiperazin-1-yl)ethyl)piperidin-4-amine], the 50% inhibitory concentration (IC50) was found to be 50 nM.

In the case of `Cc1ccc(N2CCC(NCCN3CCN(C(C)C)CC3)CC2)cc1-c1cc2cc(C#N)ccc2[nH]1` [UPCDC30361, 2-(5-(4-((2-(4-Isopropylpiperazin-1-yl)ethyl)amino)piperidin-1-yl)-2-methylphenyl)-1H-indole-5-carbonitrile], the half-maximal inhibitory concentration (IC50) is 87 nM.

The compound `CNC(=O)c1ccc2[nH]c(-c3cccc(N4CCC(NCCN5CCN(C(C)C)CC5)CC4)c3)cc2c1` [UPCDC30367, 2-(3-(4-((2-(4-Isopropylpiperazin-1-yl)ethyl)amino)piperidin-1-yl)phenyl)-N-methyl-1H-indole-5-carboxamide] registered an IC50 of 450 nM.

Regarding `CC(C)N1CCN(CCNC2CCN(c3cccc(-c4cc5cc(C(=O)N(C)C)ccc5[nH]4)c3)CC2)CC1` [UPCDC30368, 2-(3-(4-((2-(4-Isopropylpiperazin-1-yl)ethyl)amino)piperidin-1-yl)phenyl)-N,N-dimethyl-1H-indole-5-carboxamide], the “effect of structural change on activity/potency (in words)” value is “near loss of all potency”.

In turn, `CC(C)N1CCN(CCNC2CCN(c3cccc(-c4cc5cc(F)cnc5[nH]4)c3)CC2)CC1` [UPCDC30381, 1-(3-(5-Fluoro-1H-pyrrolo[2,3-b]pyridin-2-yl)phenyl)-N-(2-(4-isopropylpiperazin-1-yl)ethyl)piperidin-4-amine] showed an IC50 of 4740 nM.
